Source: US5279835A, “Binder-free orally administrable tablet containing 3-oxygermylpropionic acid” (Sanwa Kagaku Kenkyusho Co. Ltd., priority 1991, dated 1994)

Columns and labels:
[1] = test system: delayed type hypersensitivity reactions (DTH reactions) using sheep red blood cells (SRBCs) as antigens; test: Delayed type hypersensitivity (DTH) reaction, pododerm swelling, in Sarcoma-180 bearing ICR mice sensitized with SRBCs; type: in vivo; settings: n = 10; for Pododerm Swelling, Average: Table 1-2 (MGWC 55.5, SMG 115.5)
Experimental: The effects of 3-OGP, salts and hydroxypropylcellulose incorporated in compositions were investigated by delayed type hypersensitivity reactions (DTH reactions) using sheep red blood cells (SRBCs) as antigens.
Sarcoma-180 cells (10^6) were intraperitoneally transplanted in test animals--ICR mice (seven-week old), 10 for each group. Then, SRBCs (10^6) were injected into each animal through the vein of the tail for sensitization.
Four days later, SRBCs (2×10^8) were injected into the pododerm of the right hind leg to induce the DTH reaction and, 24 hours later, the thickness of the pododerm was measured. Note that the test drugs were administrated to the animals in the form of a feed mix 4 days before sensitization.

[2] = test system: spontaneous nephritis in MRL/1 mice; test: Prevention of spontaneous nephritis in MRL/1 mice (urinary protein, blood urea nitrogen, histopathology); type: in vivo
Experimental: The effect of 3-OGP on preventing spontaneous nephritis in MRL/1 mice was investigated.
2-B) The preparation of Ex. 6 was orally administrated to test animals--MRL/1 mice of six-week old, 15 for each group--at daily doses of 0.1 mg/kg, 1.0 mg/kg and 10.0 mg/kg calculated as 3-OGP twice a week over 12 weeks. It is noted that this preparation was administrated to each animal in the form of a feed mix. […] In addition, the urea nitrogen content of blood on the day following the final administration were measured to make sero-biochemical as well as histopathological estimations of the action of the 3-OGP compositions on nephritis.
It is noted that the urinary protein was determined with Protein Pretest (made by Wako Junyaku) and the urea nitrogen content of blood was estimated with Urea Nitrogen Test B: Urease/Indophenol Method (made by Wako Junyaku).

3-oxygermylpropionic acid [Example 3-OGP]
Pododerm Swelling, Average Standard Deviation ([1]; Table 1-1, first series (MGWC 47.1, SMG 115.4), 0.1 mg/kg in feed mix): 55.1 3.3 × 0.01 mm | Pododerm Swelling, Average Standard Deviation ([1]; Table 1-1, first series (MGWC 47.1, SMG 115.4), 1 mg/kg in feed mix): 73.8 5.7 × 0.01 mm | Pododerm Swelling, Average Standard Deviation ([1]; Table 1-1, first series (MGWC 47.1, SMG 115.4), 10 mg/kg in feed mix): 70.2 5.1 × 0.01 mm | Pododerm Swelling, Average Standard Deviation ([1]; Table 1-1, second series (MGWC 48.9, SMG 117.4), 0.1 mg/kg in feed mix): 64.3 6.4 × 0.01 mm | Pododerm Swelling, Average Standard Deviation ([1]; Table 1-1, second series (MGWC 48.9, SMG 117.4), 1 mg/kg in feed mix): 72.1 5.5 × 0.01 mm | Pododerm Swelling, Average Standard Deviation ([1]; Table 1-1, second series (MGWC 48.9, SMG 117.4), 10 mg/kg in feed mix): 66.3 3.1 × 0.01 mm | Pododerm Swelling, Average ([1]; 0.1 mg/kg in feed mix): 63.5 × 0.01 mm | Pododerm Swelling, Average ([1]; 1 mg/kg in feed mix): 77.0 × 0.01 mm | Pododerm Swelling, Average ([1]; 10 mg/kg in feed mix): 73.2 × 0.01 mm | increase in urea nitrogen content of blood ([2]; 10 mg/kg of 3-OGP): significantly inhibited | increase in urinary protein ([2]; 10 mg/kg of 3-OGP, after 12 weeks): significantly inhibited even after 12 weeks | glomeruli with lesion severer than mediocre membranous glomerulonephritis ([2]; group treated with 3-OGP, control 60%): 20-36% | urinary protein increase ([2]; groups treated with 3-OGP, control increased after 9 to 10 weeks): any urinary protein increase was not found | Urinary Protein in % ([2]; preparation of Ex. 6, 0.1 mg/kg as 3-OGP, after 10 weeks, positive = 100 mg/dl or more (control 52.3)): 28.7% | Urinary Protein in % ([2]; preparation of Ex. 6, 0.1 mg/kg as 3-OGP, after 11 weeks (control 66.6)): 47.1% | Urinary Protein in % ([2]; preparation of Ex. 6, 0.1 mg/kg as 3-OGP, after 12 weeks (control 91.3)): 65.6% | Urinary Protein in % ([2]; preparation of Ex. 6, 1 mg/kg as 3-OGP, after 10 weeks (control 52.3)): 28.1% | Urinary Protein in % ([2]; preparation of Ex. 6, 1 mg/kg as 3-OGP, after 11 weeks (control 66.6)): 23.8% | Urinary Protein in % ([2]; preparation of Ex. 6, 1 mg/kg as 3-OGP, after 12 weeks (control 91.3)): 51.0% | Urinary Protein in % ([2]; preparation of Ex. 6, 10 mg/kg as 3-OGP, after 10 weeks (control 52.3)): 15.8% | Urinary Protein in % ([2]; preparation of Ex. 6, 10 mg/kg as 3-OGP, after 11 weeks (control 66.6)): 27.5% | Urinary Protein in % ([2]; preparation of Ex. 6, 10 mg/kg as 3-OGP, after 12 weeks (control 91.3)): 53.3%
